Columns and labels:
[1] = tested on: 786-0; settings: 786-0, Renal
[2] = tested on: UO-31; settings: UO-31, Renal
[3] = tested on: MDA-MB-231
[4] = tested on: HT29; settings: HT29, Colon
[5] = tested on: SNB-19; type: cell-based; settings: SNB-19, CNS
[6] = tested on: KM12; settings: KM12, Colon
[7] = tested on: SK-MEL-28; settings: SK-MEL-28, Melanoma
[8] = tested on: NCI-H226
[9] = tested on: A549/ATCC
[10] = tested on: SK-MEL-5; settings: SK-MEL-5, Melanoma
[11] = tested on: NCI-H460
[12] = tested on: ACHN
[13] = tested on: OVCAR-5; settings: OVCAR-5, Ovarian
[14] = tested on: NCI/ADR-RES
[15] = tested on: COLO 205; settings: COLO 205, Colon
[16] = tested on: SNB-75; settings: SNB-75, CNS
[17] = tested on: HOP-92
[18] = tested on: MCF7; settings: MCF7, Breast
[19] = tested on: SW-620; settings: SW-620, Colon
[20] = tested on: MALME-3M; settings: Melanoma
[21] = tested on: BT-549; type: cell-based; settings: BT-549, Breast
[22] = tested on: DU-145; settings: DU-145, Prostate
[23] = tested on: SK-OV-3; settings: SK-OV-3, Ovarian
[24] = tested on: HS 578T
[25] = tested on: IGROV1; settings: IGROV1, Ovarian
[26] = tested on: SN12C
[27] = tested on: K-562; settings: K-562, Leukemia
[28] = tested on: LOX IMVI
[29] = tested on: MDA-MB-468; settings: MDA-MB-468, Breast
[30] = tested on: CAKI-1; settings: CAKI-1, Renal
[31] = tested on: SF-268; settings: SF-268, CNS
[32] = read-out: 50% lethal concentration (LC50)
[33] = read-out: 50% lethal concentration (LC50), Renal

In the case of C=C1CCC2C3(C)COC(c4cn(-c5ccccc5)nc4-c4ccc(OC)cc4)OC3CCC2(C)C1CC=C1C(=O)OCC1O (stereo not shown) [1j], the GI50 [1] is reported as 2.3 µM, the Total growth inhibition (TGI) [1] is reported as 5.59 µM and the CC50 [1, 32] is reported as over 100 µM. For the same compound, the GI50 [2] was 1.22 µM, the Total growth inhibition (TGI) [2] was 2.54 µM and the CC50 [2, 32] was 5.25 µM. For the same compound, the GI50 ([3]; MDA-MB-231, Breast) was 1.47 µM, the Total growth inhibition (TGI) ([3]; MDA-MB-231/ATCC, Breast) was 2.98 µM and the CC50 ([3]; read-out: 50% lethal concentration (LC50), MDA-MB-231/ATCC, Breast) was 60.1 µM. It also gave a GI50 [4] of 1.7 µM, a Total growth inhibition (TGI) [4] of 3.38 µM and a CC50 [4, 32] of 6.73 µM. For the same compound, the GI50 [5] was 2.46 µM, the Total growth inhibition (TGI) [5] was 7.42 µM and the CC50 [5, 32] was 34.6 µM. For the same compound, the GI50 [6] was 1.66 µM, the Total growth inhibition (TGI) [6] was 3.31 µM and the GI50 [7] was 1.94 µM. For the same compound, the Total growth inhibition (TGI) [7] was 3.69 µM, the CC50 [7, 32] was 7.01 µM and the Total growth inhibition (TGI) ([8]; NCI-H226, Non-Small Cell Lung) was 3.36 µM. It also gave a GI50 ([8]; NCI-H226, Non-Small-Cell Lung) of 1.72 µM, a CC50 ([8]; read-out: 50% lethal concentration (LC50), NCI-H226, Non-Small Cell Lung) of 6.55 µM and a Total growth inhibition (TGI) ([9]; Non-Small Cell Lung) of 7.29 µM. The GI50 ([9]; Non-Small-Cell Lung) was 2.39 µM, the CC50 ([9]; read-out: 50% lethal concentration (LC50), Non-Small Cell Lung) was 62.2 µM and the GI50 [10] was 1.54 µM. It also gave a Total growth inhibition (TGI) [10] of 2.89 µM, a CC50 [10, 32] of 5.41 µM and a Total growth inhibition (TGI) ([11]; NCI-H460, Non-Small Cell Lung) of 3.5 µM. For the same compound, the GI50 ([11]; NCI-H460, Non-Small-Cell Lung) was 1.74 µM, the CC50 ([11]; read-out: 50% lethal concentration (LC50), NCI-H460, Non-Small Cell Lung) was 7.01 µM and the GI50 ([12]; Renal) was 1.52 µM. It also gave a Total growth inhibition (TGI) ([12]; Renal) of 2.87 µM, a CC50 [12, 33] of 5.41 µM and a GI50 [13] of 1.86 µM. It also gave a Total growth inhibition (TGI) [13] of 4.21 µM, a CC50 [13, 32] of 9.52 µM and a GI50 ([14]; Ovarian) of 1.94 µM. The Total growth inhibition (TGI) ([14]; Ovarian) was 4.41 µM, the CC50 ([14]; read-out: 50% lethal concentration (LC50), Ovarian) was over 100 µM and the GI50 [15] was 1.95 µM. The Total growth inhibition (TGI) [15] was 4.24 µM, the GI50 [16] was 1.15 µM and the Total growth inhibition (TGI) [16] was 5.09 µM. The CC50 [16, 32] was 24.4 µM, the Total growth inhibition (TGI) ([17]; HOP-92, Non-Small Cell Lung) was 3.02 µM and the GI50 ([17]; HOP-92, Non-Small-Cell Lung) was 1.47 µM. It also gave a CC50 ([17]; read-out: 50% lethal concentration (LC50), HOP-92, Non-Small Cell Lung) of 6.2 µM, a GI50 [18] of 1.46 µM and a Total growth inhibition (TGI) [18] of over 100 µM. It also gave a CC50 [18, 32] of over 100 µM, a GI50 [19] of 1.69 µM and a Total growth inhibition (TGI) [19] of 3.8 µM. It also gave a CC50 [19, 32] of 8.55 µM, a GI50 [20] of 1.54 µM and a Total growth inhibition (TGI) [20] of 2.93 µM. For the same compound, the GI50 [21] was 1.65 µM, the Total growth inhibition (TGI) [21] was 3.23 µM and the GI50 [22] was 2.04 µM. It also gave a Total growth inhibition (TGI) [22] of 4.94 µM, a CC50 [22, 32] of 16.4 µM and a GI50 [23] of 3.44 µM. For the same compound, the Total growth inhibition (TGI) [23] was 23.9 µM, the CC50 [23, 32] was over 100 µM and the GI50 ([24]; Breast) was 1.86 µM. It also gave a Total growth inhibition (TGI) ([24]; Breast) of 4.88 µM, a CC50 ([24]; read-out: 50% lethal concentration (LC50), Breast) of over 100 µM and a GI50 [25] of 1.37 µM. The Total growth inhibition (TGI) [25] was 2.99 µM, the CC50 [25, 32] was 6.52 µM and the GI50 ([26]; Renal) was 1.98 µM. It also gave a Total growth inhibition (TGI) ([26]; Renal) of 5.94 µM, a CC50 [26, 33] of 65.1 µM and a GI50 [27] of 1.9 µM. For the same compound, the CC50 [27, 32] was over 100 µM, the GI50 ([28]; Melanoma) was 1.57 µM and the Total growth inhibition (TGI) ([28]; Melanoma) was 2.93 µM. It also gave a CC50 ([28]; read-out: 50% lethal concentration (LC50), Melanoma) of 5.47 µM, a GI50 [29] of 1.71 µM and a Total growth inhibition (TGI) [29] of 3.25 µM. It also gave a CC50 [29, 32] of 6.16 µM, a GI50 [30] of 1.26 µM and a Total growth inhibition (TGI) [30] of 2.64 µM. It also gave a CC50 [30, 32] of 5.54 µM, a GI50 [31] of 1.67 µM and a Total growth inhibition (TGI) [31] of 3.6 µM. The CC50 [31, 32] was 7.77 µM.

— PMC12298351, “Novel 3,19-(N-Phenyl-3-(4-fluorophenyl)-pyrazole) Acetal of Andrographolide Promotes Cell Cycle Arrest and Apoptosis in MDA-MB-231 Breast Cancer Cells” (Pharmaceuticals, 2025)
